In patent US20100204254A1, “Use of statins in the prevention and treatment of radiation injury and other disorders associated with reduced endothelial thrombomodulin” (The University of Arkansas for Medical Sciences, priority 2002, published 2010):

Assays:
[1] = tested on: thrombomodulin mRNA (EA.hy926 endothelial cells); assay: Fluorogenic probe RT-PCR, steady-state thrombomodulin mRNA; format: cell-based, human; parameters: concentration dependence of thrombomodulin mRNA: dose or concentration left out as unconfirmed; details: for mRNA (thrombomodulin): FPP 10 μM, squalene 100 μM, GGPP 10 μM, atorvastatin 10 μM, intermediates 30 min before 24-hour atorvastatin, mean ± SEM, method gives % b-actin; for increase in thrombomodulin transcript: 10 mM atorvastatin
Method: (§1) Steady-state TM mRNA levels were measured using quantitative real-time RT-PCR (Dr. G. Shipley, Quantitative Genomics Core Laboratory, University of Texas Health Science Center, Houston, Tex.). Human thrombomodulin and b-actin fluorogenic oligonucleotide probes and primers were designed from Genbank sequences, using Primer Express software (Applied Biosystems, Foster City, Calif.) and synthesized by Biosource International (Camarillo, Calif.). Total RNA was extracted using TRIZOL Reagent (Invitrogen, Carlsbad, Calif.) and the RNA samples were treated with RNAse-free DNAse I (Promega, Madison, Wis.). cDNA was synthesized from total RNA in 10 μl total volume, consisting of 6 μl RT master mix (Invitrogen, Carlsbad, Calif.) and a 4-μl RNA sample (30 ng/μl), using a thermocycler (MJR, Waltham, Mass.) for 30 minutes at 50° C. followed by 72° C. for 10 min. Samples were measured in triplicate. An assay-specific sDNA standard spanning a 5-log range and appropriate controls were included. Forty ml of a PCR master mix was pipetted directly onto each well of the cDNA plate utilizing a Biomek 2000 robotic workstation (Beckman, Fullerton, Calif.), and amplified (95° C. for 1 min; 40 cycles of 95° C. for 12 sec, and 60° C. for 1 min) using the 7700 Sequence Detector (Applied Biosystems). The data were normalized to b-actin and presented as molecules of TM transcript/molecules of b-actin transcript×100 (% b-actin).

[2] = tested on: thrombomodulin protein (EA.hy926 endothelial cells); assay: Western blotting of thrombomodulin protein in cell lysates; format: cell-based, human; details: for Protein (thrombomodulin): same treatments, untreated control = 100, mean ± SEM
Method: (§2) Cells were harvested with trypsin/EDTA and lysed in lysis buffer (10 mM Tris, pH7.4, 150 mM NaCl, 1 mM EDTA, IGPAL CA630, 1 mM PMSF). Protein concentration was measured with the BCA assay (Pierce, Rockford, Ill.). Proteins (20 μg/per lane) were resolved by NuPAGE 4-10% Bis-tris gel electrophoresis (Invitrogen, Carlsbad, Calif.) and electrotransferred onto nitrocellulose membranes. Membranes were probed with primary mouse anti-human thrombomodulin antibody (American Diagnostica), followed by application of a secondary horseradish peroxidase-conjugated (HRP) anti-mouse IgG antibody (American Diagnostica). A mouse anti-human b-actin antibody (either from Sigma or Santa Cruz Biotechnology) was used for protein loading control. HRP signals were detected with an enhanced chemiluminescence (ECL) detection system (Amersham Pharmacia Biotech). Band densities were determined from X-Ray film using SigmaGel software (Jandel Scientific, San Rafael, Calif.).
Total thrombomodulin protein in cell lysates was measured by western blotting. EA.hy926 cells were grown to early (90%+) confluence. The cells were washed with 1×PBS twice and lysed by adding 1 ml lysis buffer (10 mM Tris, pH 7.4; 150 mM NaCl; 1 mM EDTA; 1% NP-40 or IGPAL CA630; 1 mM PMSF), and the lysate was collected into eppendorf tubes. Protein concentrations were measured with the BCA protein assay kit (Pierce). Protein aliquots of each sample were mixed with 4× loading buffer, placed in a boiling water bath for 5 min, and subsequently separated by NuPAGE 4-10% Bis-tris gel electrophoresis (Invitrogen Life Technologies). The proteins were transferred to a nitrocellulose membrane, probed with primary monoclonal mouse anti-human thrombomodulin antibody at 1:1000 and secondary anti-mouse IgG-HRP antibody at 1:2000 (American Diagnostica, Inc.) using standard procedures. The HRP signal was detected using ECL detection reagents (Amersham Life Sciences) and visualized on X-ray film.

[3] = tested on: cell surface thrombomodulin (EA.hy926 endothelial cells); assay: Flow cytometry, cell surface thrombomodulin antigen (CD-141); format: cell-based, human; details: for Antigen (cell surface thrombomodulin): same treatments, mean ± SEM, method gives antibody binding sites
Method: (§3) Cells were examined for surface antigen expression by flow cytometry, using specific phycoerythrin-conjugated mouse antibodies against human TM (CD-141), a general endothelial cell marker (PECAM [CD-31]), and markers of stimulated endothelial cells (tissue factor [CD-142] and P-selectin [CD-62]) (BD Biosciences, San Diego, Calif.). Cell viability was assessed using 7-amino-actinomycin D (7-AAD). Phycoerythrin-conjugated mouse IgG was used as negative control. A total of 1×10^5 cells were used for each analysis. Cells were harvested, stained with appropriate phycoerythin-conjugated antibodies, fixed in 1% paraformaldehyde, and analysis was performed using a FACSCalibur Flow Cytometer (BD Immunocytometry System, San Jose, Calif.), QuantiBRITE-PE beads (BD Biosciences, San Diego, Calif.), and CELLQuest software. Antigen levels were expressed as antibody binding sites (ABS).

[4] = tested on: thrombomodulin activity (EA.hy926 endothelial cells); assay: Protein C activation assay (thrombomodulin activity); format: cell-based, human; parameters: concentration dependence of cell surface thrombomodulin activity: dose or concentration left out as unconfirmed; details: for Activity (thrombomodulin, protein C activation): same treatments, mean ± SEM, method gives OD slope; for influence of enzyme inhibitors on thrombomodulin activity: data not shown; for effect of nitric oxide donors on thrombomodulin activity: 10 mM
Method: (§4) TM activity was assessed by measuring protein C activation in early confluent cells grown on 96-well plates. Cells were washed twice with PBS and incubated with […] protein C and 1 nM thrombin (60 min at 37° C., […] total volume) to generate activated protein C. Excess thrombin was quenched with hirudin ([…], 0.2 ATu/ml). The amount of activated protein C generated was measured by monitoring hydrolysis of chromogenic substrate S-2366 at 5-min intervals at 405 nm in a microplate reader (Bio-TEK Instruments, Winooski, Vt.). The results were expressed as mean OD slope values (DOD/Dt).
The functional activity of thrombomodulin was assessed by measuring the ability of the endothelial cells to activate protein C. All samples and reagents were diluted in APC assay diluent (20 mM Tri-HCl, pH7.4, 100 mM NaCl, 2.5 mM CaCl2, 0.5% BSA). Exponentially growing EA.hy 926 endothelial cells were seeded into 96 well plates in triplicate (2×10^4 per well). Cells were allowed to attach and grow overnight, and then washed twice with PBS and incubated for 60 min in 60 μl total volume at 37° C. with 0.5 μM protein C and 1 nM thrombin to generate activated protein C. Excess thrombin was blocked with a superstoichiometric amount of hirudin (20 μl, 0.16 U/μl, 570 nM). Generation of active protein C was determined by using a chromogenic substrate S-2366 and absorbance at 405 nm was measured by using a Vmax kinetic microplate reader.

[5] = tested on: endothelial cell thrombomodulin (EA.hy926 endothelial cells); assay: Thrombomodulin expression and activity overall (mRNA, protein, surface antigen, activity); format: cell-based, human; parameters: blocking of atorvastatin-induced thrombomodulin upregulation: dose or concentration left out as unconfirmed; details: for blocking of atorvastatin-induced thrombomodulin upregulation: 30 min pre-incubation
Method: as §1, §2, §3, §4
Statins, by inhibiting HMG-CoA reductase, reduce the formation of mevalonate (FIG. 7). […]

[6] = tested on: thrombomodulin activity (human intestinal microvascular cells); assay: Protein C activation assay (thrombomodulin activity); format: cell-based
Method: as §4

[7] = tested on: tissue factor (EA.hy926 endothelial cells); assay: Tissue factor (CD-142) expression after TNF-a exposure; format: cell-based, human; details: atorvastatin pre-treatment, data not shown
Method: as §3
TNF-a potently downregulates endothelial thrombomodulin, an effect that is pathophysiologically significant in sepsis and related disorders. Therefore, the effect of atorvastatin on TNF-a-induced downregulation of endothelial cell thrombomodulin was examined. Exposure of EA.hy926 cells to TNF-a (1-20 ng/ml for 24 hours) caused a dose-dependent increase in apoptosis (4-fold at 10 ng/ml) and tissue factor (2.5-fold) and decreased thrombomodulin by 75% (data not shown). […]

[8] = tested on: EA.hy926 endothelial cells; assay: Apoptosis after TNF-a exposure; format: cell-based, human; details: atorvastatin pre-treatment, data not shown
Method: TNF-a potently downregulates endothelial thrombomodulin, an effect that is pathophysiologically significant in sepsis and related disorders. Therefore, the effect of atorvastatin on TNF-a-induced downregulation of endothelial cell thrombomodulin was examined. Exposure of EA.hy926 cells to TNF-a (1-20 ng/ml for 24 hours) caused a dose-dependent increase in apoptosis (4-fold at 10 ng/ml) and tissue factor (2.5-fold) and decreased thrombomodulin by 75% (data not shown). EA.hy926 cells were pre-treated with atorvastatin (10 μM for 30 min) before exposure to TNF-a (1 or 10 ng/ml, 24 hours).

[9] = 24 hours, atorvastatin 0.1-15 mM
[10] = statin before radiation, normal and irradiated cells, 24 hours after irradiation
[11] = atorvastatin 10 μM for 30 min before TNF-a 1 or 10 ng/ml, 24 hours

CC(C)=CCC/C(C)=C/CC/C(C)=C/COP(=O)(O)OP(=O)(O)O [FPP, farnesyl-pyrophosphate]
mRNA (thrombomodulin) [1]: 8.2 ± 1.9
Protein (thrombomodulin) [2]: 94 ± 9
Antigen (cell surface thrombomodulin) [3]: 74.3 ± 1.1
Activity (thrombomodulin, protein C activation) [4]: 3.6 ± 0.3
blocking of atorvastatin-induced thrombomodulin upregulation [5]: only partially blocked

CC(C)=CCC/C(C)=C/CC/C(C)=C/CC/C(C)=C/COP(=O)(O)OP(=O)(O)O [GGPP, geranylgeranyl-pyrophosphate]
mRNA (thrombomodulin) [1]: 5.4 ± 0.5
Protein (thrombomodulin) [2]: 124 ± 11
Antigen (cell surface thrombomodulin) [3]: 66.6 ± 5
Activity (thrombomodulin, protein C activation) [4]: 3.0 ± 0.7
blocking of atorvastatin-induced thrombomodulin upregulation [5]: completely blocked

COC(=O)[C@H](CC(C)C)NC(=O)c1ccc(NC[C@@H](N)CS)cc1-c1cccc2ccccc12 [GGTI-298]
influence of enzyme inhibitors on thrombomodulin activity [4]: increasing thrombomodulin activity

CCCN(CCCN)N(O)N=O [PAPA-NONOate, 3-(2-Hydroxy-2-nitroso-1-propylhydrazino)-1-propanamine]
effect of nitric oxide donors on thrombomodulin activity [4]: mimicked the effect of atorvastatin on thrombomodulin activity

CC1(C)N([O])C(c2ccccc2)=[N+]([O-])C1(C)C [PTIO, 2-Phenyl-4,4,5,5-tetramethylimidazoline-1-oxyl 3-oxide]
effect of NO scavenger on atorvastatin-induced increase in thrombomodulin activity ([4]; pre-incubation with 100 mM): inhibited the atorvastatin-induced increase in thrombomodulin activity

Cl.N=c1c[n+](N2CCOCC2)[n-]o1 [SIN-1, 3-Morpholinosydnonimine hydrochloride]
effect of nitric oxide donors on thrombomodulin activity [4]: mimicked the effect of atorvastatin on thrombomodulin activity

CC(C)=CCC/C(C)=C/CC/C(C)=C/CC/C=C(\C)CC/C=C(\C)CCC=C(C)C [Squalene, squalene]
mRNA (thrombomodulin) [1]: 5.9 ± 1.0
Protein (thrombomodulin) [2]: 147 ± 29
Antigen (cell surface thrombomodulin) [3]: 60.9 ± 1.9
Activity (thrombomodulin, protein C activation) [4]: 2.4 ± 0.6
blocking of atorvastatin-induced thrombomodulin upregulation [5]: ineffective in blocking

CC(C)c1c(C(=O)Nc2ccccc2)c(-c2ccccc2)c(-c2ccc(F)cc2)n1CC[C@@H](O)C[C@@H](O)CC(=O)O [atorvastatin]
increase in thrombomodulin transcript ([1]; 8 hours): 3 fold
increase in thrombomodulin transcript ([1]; 24 hours): > 10 fold
concentration dependence of thrombomodulin mRNA ([1]; 24 hours): prominent dose-dependent increase
mRNA (thrombomodulin) [1]: 71.7 ± 8.8
increase in thrombomodulin protein ([2]; 10 mM atorvastatin, 24 hours): 2- to 3 fold
concentration dependence of cellular thrombomodulin protein [2, 9]: prominent dose-dependent increase
thrombomodulin protein, Western blot of cell lysates ([2]; irradiated and non-irradiated cells): prominent increase in thrombomodulin protein
Protein (thrombomodulin) [2]: 403 ± 70
increase in cell surface TM antigen ([3]; 10 mM statin, 24 hours): 2- to 3 fold
concentration dependence of cell surface thrombomodulin antigen [3, 9]: prominent dose-dependent increase
Antigen (cell surface thrombomodulin) [3]: 146.2 ± 1.9
thrombomodulin antigen expression compared to control endothelial cells [3, 10]: significantly higher
increase in TM activity (protein C activation) ([4]; 10 mM statin, 24 hours): 2- to 3 fold
thrombomodulin activity in irradiated endothelial cells ([4]; 25 Gy single dose radiation): essentially restored normal thrombomodulin activity
concentration dependence of cell surface thrombomodulin activity ([4]; 24 hours, different concentrations): prominent dose-dependent increase
effect on TNF-a-induced downregulation of thrombomodulin activity [4, 11]: completely counteracted
Activity (thrombomodulin, protein C activation) [4]: 4.1 ± 0.3
thrombomodulin activity compared to control endothelial cells [4, 10]: significantly higher
endothelial thrombomodulin activity (protein C activation assay) [6]: significantly affected
levels of thrombomodulin gene expression, protein and surface expression under TNF-a [5, 11]: significantly above those of untreated control cells
effect on TNF-a-induced tissue factor expression [7]: did not affect
effect on TNF-a-induced apoptosis [8]: did not affect

CC(O)(CCO)CC(=O)O (centres unmarked) [mevalonate, Mevalonate]
inhibition of atorvastatin-induced thrombomodulin upregulation ([5]; 100 mM or 500 mM mevalonate 30 min prior to 24-hour): dose-dependent inhibition
inhibition of atorvastatin-induced thrombomodulin upregulation ([5]; higher mevalonate concentration): virtually complete inhibition

C=C(CC[C@]12O[C@H](C(=O)O)[C@@](O)(C(=O)O)[C@](C(=O)O)(O1)[C@H](OC(=O)/C=C/[C@@H](C)C[C@@H](C)CC)[C@H]2O)[C@@H](OC(C)=O)[C@H](C)Cc1ccccc1 [zaragozic acid, zaragozic acid A]
influence of enzyme inhibitors on thrombomodulin activity [4]: no effect
